In publication PMC9482650, “Quantitative fragmentomics allow affinity mapping of interactomes” (Nature Communications, 2022):
Ends that are not written are not given here. * marks the point of attachment. Biotin = O=C1N[C@H]2[C@H](CS[C@H]2CCCCC(=O)*)N1; ttds = NCCCOCCOCCOCCCNC(=O)CCC(=O)*

What was measured:
[1] = system: DLG1; assay: PBM-AP-MS from Jurkat extract; assay type: binding, Homo sapiens; conditions: prey DLG1, PBM peptide bait
Description: (§1) For PBM-AP-MS experiments, 30 μl streptavidin resin was mixed with biotin or peptide at 50–60 μM concentration in 6–6.5 resin volume for 60 min to achieve resin saturation. For PDZ-AP-MS experiments, 30 μl streptavidin resin was mixed with biotinylated MBP or MBP-PDZ at 40-50 μM concentration in >1000× resin volume for 60 min to achieve resin saturation. After saturation, resins were washed a single time (ten resin volume, holdup buffer), and were depleted with biotin (1 mM biotin, 5–10 resin volume, 10 min). Finally, resins were washed two times. 0.5 ml 2 mg/ml cell lysate was added to the dry resin (1 mg total input) and were incubated at 4 °C for 2 h. Then, the beads were washed three times with 10 resin volume buffer containing: 50 mM TRIS pH 8.5, 150 mM NaCl, 1% TritonX-100, 10× complete EDTA-free protease inhibitor cocktail, 2 mM EDTA, 1 mM TCEP. Then, the beads were washed two times with ten resin volume buffer containing: 50 mM TRIS pH 8.5, 150 mM NaCl, 1 mM TCEP. Finally, captured protein was eluted from the resin in two steps and the eluted fractions were pooled. For each elution the beads were incubated for 30 min with three resin volume buffer containing: 20 mM TRIS pH8.5, 100 mM NaCl, 500 μM TCEP, 8 M Urea. Between each step, the beads were separated by mild centrifugation and the supernatant was removed by gentle pipetting.
(§2) Proteins were identified by database searching using SequestHT (Thermo Fisher Scientific) with Proteome Discoverer 2.4 software (PD2.4, Thermo Fisher Scientific) on human FASTA database downloaded from SwissProt (reviewed, release 2020_11_27, 20304 entries, https://www.uniprot.org/). Precursor and fragment mass tolerances were set at 7 ppm and 0.6 Da respectively, and up to two missed cleavages were allowed. Oxidation (M, +15.995 Da) was set as variable modification, and Carbamidomethylation (C, +57.021 Da) as fixed modification. Peptides and proteins were filtered with a false discovery rate at 1%. Label-free quantification was based on the extracted ion chromatography intensity of the peptides. All samples were measured in technical triplicates. The measured extracted ion chromatogram (XIC) intensities were normalized based on median intensities of the entire dataset to correct minor loading differences. For statistical tests and enrichment calculations, not detectable intensity values were treated with an imputation method, where the missing values were replaced by random values similar to the 10% of the lowest intensity values present in the entire dataset. Unpaired two-tailed T-test, assuming equal variance, were performed on obtained log2 XIC intensities. The detection threshold for enriched proteins in AP-MS experiments were analyzed above twofold enrichment with <0.01 P value. Then, proteins with PDZ-domains or PBMs were extracted from the list of enriched proteins. In case only a specific isoform of the detected protein contains a PBM, the identified peptide fragments were manually checked to check which isoform(s) were most likely detected. All raw LC-MS/MS data (from 165 runs) have been deposited to the ProteomeXchange via the PRIDE database with identifier PXD027743.

[2] = system: SCRIB; assay: PBM-AP-MS from Jurkat extract; assay type: binding, Homo sapiens; conditions: prey SCRIB, PBM peptide bait
Description: as §1, §2

[3] = system: CASK; assay: PBM-AP-MS from Jurkat extract; assay type: binding, Homo sapiens; conditions: prey CASK, PBM peptide bait
Description: as §1, §2

[4] = system: LIN7C; assay: PBM-AP-MS from Jurkat extract; assay type: binding, Homo sapiens; conditions: prey LIN7C, PBM peptide bait
Description: as §1, §2

[5] = system: MAGI1; assay: PBM-AP-MS from Jurkat extract; assay type: binding, Homo sapiens; conditions: prey MAGI1, PBM peptide bait
Description: as §1, §2

[6] = molecular target: PDZ-proteins; assay: Estimated PPI affinity, additive association constants of all PDZ sites; assay type: binding, human;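 also: calculated estimate, not directly measured: domain-motif affinities from holdup assays, association constants summed over all PDZ sites, one motif bound at a time, weak interactions ignored, giving a lower limit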
Description: We used the previously generated domain-motif interactome, consisting of the composite affinities (i.e., taken from the most reliable holdup method; see above) to estimate affinities of PPIs. We assumed that a multidomain PDZ-protein can only interact with a single PBM at the same time (Eq. (4)):4 PDZ+PBM⇌(PDZ−PBM)site1,or(PDZ−PBM)site2,or(PDZ−PBM)siten
Using this approximation, as proposed by others before[45], the association constant of a multi-site interaction is the sum of the association constants of all sites (Eq. (5)):5 Ka,additive=[PDZ−PBM]site1+[PDZ−PBM]site2+…+[PDZ−PBM]siten/[PDZ]×[PBM]=∑Ka,site
The contribution of unmeasurable weak interactions was also neglected in the calculations.

| Substance | Enrichment values compared to biotin controls [1] | Enrichment values compared to biotin controls [2] | Enrichment values compared to biotin controls [3] | Enrichment values compared to biotin controls [4] | Enrichment values compared to biotin controls [5] | final additive pKd ([6]; PDZ-protein AHNAK) | final additive pKd ([6]; PDZ-protein CASK) | final additive pKd ([6]; PDZ-protein DLG1) | final additive pKd ([6]; PDZ-protein InaDl) | final additive pKd ([6]; PDZ-protein LAP2) | final additive pKd ([6]; PDZ-protein LIN7C) | final additive pKd ([6]; PDZ-protein LNX2) | final additive pKd ([6]; PDZ-protein MAGI3) | final additive pKd ([6]; PDZ-protein MPP5) | final additive pKd ([6]; PDZ-protein MPP6) | final additive pKd ([6]; PDZ-protein MPP7) | final additive pKd ([6]; PDZ-protein NHERF2) | final additive pKd ([6]; PDZ-protein PDLIM2) | final additive pKd ([6]; PDZ-protein PDLIM5) | final additive pKd ([6]; PDZ-protein PDLIM7) | also measured |
| --- | --- | --- | --- | --- | --- | --- | --- | --- | --- | --- | --- | --- | --- | --- | --- | --- | --- | --- | --- | --- | --- |
| HPV18E6 | 519.3 | 288.2 | 15.2 | 68.0 | 134.3 | 3.5 | 3.5 | 5.948 | 3.7336 | 3.615 | 4.171 | 3.17 | 5.558 | 3.5 | 3.5 | 3.5 | 3.5 | 3.5 | 3.5 | 3.5 | final additive pKd ([6]; PDZ-protein PSMD9): 3.5; final additive pKd ([6]; PDZ-protein SCRIB): 5.064; final additive pKd ([6]; PDZ-protein SNTB1): 5.229; final additive pKd ([6]; PDZ-protein SNTB2): 4.58; final additive pKd ([6]; PDZ-protein SNX27): 4.554; final additive pKd ([6]; PDZ-protein SYNJ2BP): 5.349; final additive pKd ([6]; PDZ-protein TX1B3): 4.665 |
| HPV30E6 ({Biotin-ttds}-RHTTSTETAV) | 488.6 | 266.4 | 11.1 | 26.9 | 25.1 | 3.716 | 3.5 | 5.729 | 4.166 | 4.458 | 4.187 | 3.771 | 5.357 | 3.5 | 3.5 | 3.5 | 3.5 | 3.5 | 3.5 | 3.5 | final additive pKd ([6]; PDZ-protein PSMD9): 3.5; final additive pKd ([6]; PDZ-protein SCRIB): 5.522; final additive pKd ([6]; PDZ-protein SNTB1): 5.102; final additive pKd ([6]; PDZ-protein SNTB2): 4.675; final additive pKd ([6]; PDZ-protein SNX27): 5.636; final additive pKd ([6]; PDZ-protein SYNJ2BP): 5.355; final additive pKd ([6]; PDZ-protein TX1B3): 4.653 |
| HPV35E6 ({Biotin-ttds}-SKPTRRETEV) | 596.6 | 314.5 | 12.7 | 34.7 | 54.3 | 3.5 | 3.5 | 5.779 | 3.5 | 3.6933 | 3.759 | 3.5 | 5.407 | 3.5 | 3.5 | 3.5 | 3.774 | 3.5 | 3.5 | 3.5 | final additive pKd ([6]; PDZ-protein PSMD9): 3.5; final additive pKd ([6]; PDZ-protein SCRIB): 5.233; final additive pKd ([6]; PDZ-protein SNTB1): 4.679; final additive pKd ([6]; PDZ-protein SNX27): 4.662; final additive pKd ([6]; PDZ-protein SYNJ2BP): 5.6853; final additive pKd ([6]; PDZ-protein TX1B3): 4.927 |
